Where a chain is given by its changes, count along the chain named. Where no end group is shown, it is not given here.
Tests used:
MBP-SNX17 WT = target: T1, MBP-SNX17 WT (Homo sapiens, UniProt Q15036); experiment: Fluorescence anisotropy binding of 5-FAM peptides to MBP-SNX17 wild-type
T1 construct: M protein marker, R Retriever complex, FL full-length; His (N, cleaved yes); made in house; host or cells: Escherichia coli BL21(DE3)
T1 sequence (Q15036 1-470): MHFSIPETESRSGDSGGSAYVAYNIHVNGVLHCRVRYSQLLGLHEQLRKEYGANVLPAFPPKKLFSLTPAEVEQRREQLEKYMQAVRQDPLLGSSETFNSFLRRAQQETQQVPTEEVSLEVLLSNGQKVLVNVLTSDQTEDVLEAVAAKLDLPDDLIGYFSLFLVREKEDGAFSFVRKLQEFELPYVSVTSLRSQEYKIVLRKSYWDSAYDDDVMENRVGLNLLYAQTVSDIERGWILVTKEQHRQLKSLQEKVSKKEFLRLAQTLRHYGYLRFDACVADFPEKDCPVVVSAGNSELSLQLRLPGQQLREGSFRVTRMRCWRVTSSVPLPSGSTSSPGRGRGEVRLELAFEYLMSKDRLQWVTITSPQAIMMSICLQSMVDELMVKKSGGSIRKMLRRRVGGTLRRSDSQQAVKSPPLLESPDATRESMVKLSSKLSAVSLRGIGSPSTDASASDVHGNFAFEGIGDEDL
Description: (§1) Lyophilized peptides were resuspended in 100 mM Hepes pH 8.0 at 5 mg/ml and further diluted in the assay buffer (50 mM Hepes pH 7.5, 300 mM NaCl, and 1 mM DTT). […] The mixture was incubated at 25 °C for at least 30 min and then transferred to 96 Flat Black plates. Fluorescence anisotropy was measured at 25 °C using Spark 10M Plate Reader (Tecan) with a 485/20 excitation filter and a 535/35 emission filter. The dissociation constants were calculated in GraphPad Prism by nonlinear regression fitting of the experimental data to a one-site total binding model. The final KD measurement is the mean of at least two independent experiments.

MBP-SNX17 L470G = target: T2, MBP-SNX17 L470G (Homo sapiens, UniProt Q15036, L470G); experiment: Fluorescence anisotropy binding of 5-FAM cargo peptides to MBP-SNX17 L470G
T2 construct: M protein marker, R Retriever complex, FL full-length; His (N, cleaved yes); made in house; host or cells: Escherichia coli BL21(DE3)
T2 sequence (Q15036 1-470 L470G): T1 sequence (Q15036 1-470) with L470G
Description: as §1, with “The peptides used for binding assays were synthesized with an N-terminal 5-Carboxyfluorescein (FAM) and HPLC purified (≥95%) by GenScript. Lyophilized” for “Lyophilized”

KLITYDNPAYEGID [L2 14-mer]
Kd (MBP-SNX17 WT): 1100 ± 100 nM
Kd (MBP-SNX17 L470G): 1100 ± 600 nM

From publication PMC11772769, “Selective cargo and membrane recognition by SNX17 regulates its interaction with Retriever” (EMBO Reports, 2024)
